{"source": "ChEMBL document CHEMBL3351988", "about": "“Synthesis and biological evaluation of novel 6-chloro-quinazolin derivatives as potential antitumor agents” (Eur J Med Chem, 2014)", "note": "pIC50: −log10 of the molar value. Activity calls are given as the source filed them. No cut-off for these calls is given here."}
{"system": "MGC-803", "assay": "Induction of apoptosis in human MGC803 cells assessed as nuclear fragmentation at 1 to 10 uM after 12 hrs by AO/EB staining based fluorescence microscopy", "assay_type": "functional, cell-based", "details": "not given"}
{"smiles": "O=C(/C=C/c1ccc(Oc2ncnc3ccc(Cl)cc23)cc1)/C=C/c1cc([N+](=O)[O-])ccc1Cl", "Activity": "Active"}
{"system": "Bcap37", "assay": "Induction of apoptosis in human Bcap37 cells assessed as cell volume reduction at 1 to 10 uM after 12 hrs by AO/EB staining based fluorescence microscopy", "assay_type": "functional", "details": "not given"}
{"smiles": "O=C(/C=C/c1ccc(Oc2ncnc3ccc(Cl)cc23)cc1)/C=C/c1cc([N+](=O)[O-])ccc1Cl", "Activity": "Active"}
{"system": "MGC-803", "assay": "Induction of apoptosis in human MGC803 cells at 5 uM after 12 hrs by Annexin V-FITC staining based flow cytometry", "assay_type": "functional", "details": "not given", "units": {"Activity": "%"}}
{"smiles": "O=C(/C=C/c1ccc(Oc2ncnc3ccc(Cl)cc23)cc1)/C=C/c1cc([N+](=O)[O-])ccc1Cl", "Activity": 5.6}
{"system": "MGC-803", "assay": "Induction of apoptosis in human MGC803 cells assessed as chromatin condensation at 1 to 10 uM after 12 hrs by AO/EB staining based fluorescence microscopy", "assay_type": "functional, cell-based", "details": "not given"}
{"smiles": "O=C(/C=C/c1ccc(Oc2ncnc3ccc(Cl)cc23)cc1)/C=C/c1cc([N+](=O)[O-])ccc1Cl", "Activity": "Active"}
{"system": "Bcap37", "assay": "Induction of apoptosis in human Bcap37 cells assessed as DNA fragmentation at 10 uM after 12 hrs by TUNEL assay", "assay_type": "functional, cell-based", "details": "not given"}
{"smiles": "O=C(/C=C/c1ccc(Oc2ncnc3ccc(Cl)cc23)cc1)/C=C/c1cc([N+](=O)[O-])ccc1Cl", "Activity": "Active"}
{"system": "not listed separately", "assay": "Growth inhibition of human PC3 cells after 72 hrs by MTT assay", "assay_type": "functional, cell-based", "details": "PC-3, 72 h"}
{"smiles": "O=C(/C=C/c1ccc(Oc2ncnc3ccc(Cl)cc23)cc1)/C=C/c1cc([N+](=O)[O-])ccc1Cl", "pIC50": 5.50}
{"system": "MGC-803", "assay": "Induction of apoptosis in human MGC803 cells at 10 uM after 12 hrs by Annexin V-FITC staining based flow cytometry", "assay_type": "functional", "details": "not given", "units": {"Activity": "%"}}
{"smiles": "O=C(/C=C/c1ccc(Oc2ncnc3ccc(Cl)cc23)cc1)/C=C/c1cc([N+](=O)[O-])ccc1Cl", "Activity": 8.9}
{"system": "Bcap37", "assay": "Induction of apoptosis in human Bcap37 cells assessed as condensed chromatin at 1 to 10 uM after 12 hrs by Hoechst 33258 staining based fluorescence microscopy", "assay_type": "functional, cell-based", "details": "not given"}
{"smiles": "O=C(/C=C/c1ccc(Oc2ncnc3ccc(Cl)cc23)cc1)/C=C/c1cc([N+](=O)[O-])ccc1Cl", "Activity": "Active"}
{"system": "MGC-803", "assay": "Induction of apoptosis in human MGC803 cells assessed as DNA fragmentation at 10 uM after 12 hrs by TUNEL assay", "assay_type": "functional, cell-based", "details": "not given"}
{"smiles": "O=C(/C=C/c1ccc(Oc2ncnc3ccc(Cl)cc23)cc1)/C=C/c1cc([N+](=O)[O-])ccc1Cl", "Activity": "Active"}
{"system": "Bcap37", "assay": "Induction of apoptosis in human Bcap37 cells assessed as chromatin condensation at 1 to 10 uM after 12 hrs by AO/EB staining based fluorescence microscopy", "assay_type": "functional, cell-based", "details": "not given"}
{"smiles": "O=C(/C=C/c1ccc(Oc2ncnc3ccc(Cl)cc23)cc1)/C=C/c1cc([N+](=O)[O-])ccc1Cl", "Activity": "Active"}
{"system": "MGC-803", "assay": "Induction of apoptosis in human MGC803 cells at 10 uM after 24 hrs by Annexin V-FITC staining based flow cytometry", "assay_type": "functional", "details": "not given", "units": {"Activity": "%"}}
{"smiles": "O=C(/C=C/c1ccc(Oc2ncnc3ccc(Cl)cc23)cc1)/C=C/c1cc([N+](=O)[O-])ccc1Cl", "Activity": 21.9}
{"system": "MGC-803", "assay": "Induction of apoptosis in human MGC803 cells at 10 uM after 6 hrs by Annexin V-FITC staining based flow cytometry", "assay_type": "functional", "details": "not given", "units": {"Activity": "%"}}
{"smiles": "O=C(/C=C/c1ccc(Oc2ncnc3ccc(Cl)cc23)cc1)/C=C/c1cc([N+](=O)[O-])ccc1Cl", "Activity": 4.2}
{"system": "Bcap37", "assay": "Growth inhibition of human Bcap37 cells after 72 hrs by MTT assay", "assay_type": "functional, cell-based", "details": "Bcap37, 72 h"}
{"smiles": "O=C(/C=C/c1ccc(Oc2ncnc3ccc(Cl)cc23)cc1)/C=C/c1cc([N+](=O)[O-])ccc1Cl", "pIC50": 5.01}
{"system": "MGC-803", "assay": "Growth inhibition of human MGC803 cells at 10 uM after 72 hrs by MTT assay", "assay_type": "functional", "details": "MGC-803, 72 h, read-out: GI", "units": {"inhibition of growth at 10 µM": "%"}}
{"smiles": "O=C(/C=C/c1ccc(Oc2ncnc3ccc(Cl)cc23)cc1)/C=C/c1cc([N+](=O)[O-])ccc1Cl", "inhibition of growth at 10 µM": 86.7}
{"system": "MGC-803", "assay": "Induction of apoptosis in human MGC803 cells at 1 uM after 12 hrs by Annexin V-FITC staining based flow cytometry", "assay_type": "functional", "details": "not given", "units": {"Activity": "%"}}
{"smiles": "O=C(/C=C/c1ccc(Oc2ncnc3ccc(Cl)cc23)cc1)/C=C/c1cc([N+](=O)[O-])ccc1Cl", "Activity": 1.8}
{"system": "MGC-803", "assay": "Induction of apoptosis in human MGC803 cells at 5 uM after 24 hrs by Annexin V-FITC staining based flow cytometry", "assay_type": "functional", "details": "not given", "units": {"Activity": "%"}}
{"smiles": "O=C(/C=C/c1ccc(Oc2ncnc3ccc(Cl)cc23)cc1)/C=C/c1cc([N+](=O)[O-])ccc1Cl", "Activity": 9.8}
{"system": "MGC-803", "assay": "Induction of apoptosis in human MGC803 cells at 1 uM after 24 hrs by Annexin V-FITC staining based flow cytometry", "assay_type": "functional", "details": "not given", "units": {"Activity": "%"}}
{"smiles": "O=C(/C=C/c1ccc(Oc2ncnc3ccc(Cl)cc23)cc1)/C=C/c1cc([N+](=O)[O-])ccc1Cl", "Activity": 4.3}
{"system": "Bcap37", "assay": "Induction of apoptosis in human Bcap37 cells assessed as nuclear fragmentation at 1 to 10 uM after 12 hrs by AO/EB staining based fluorescence microscopy", "assay_type": "functional, cell-based", "details": "not given"}
{"smiles": "O=C(/C=C/c1ccc(Oc2ncnc3ccc(Cl)cc23)cc1)/C=C/c1cc([N+](=O)[O-])ccc1Cl", "Activity": "Active"}
{"system": "Bcap37", "assay": "Growth inhibition of human Bcap37 cells at 10 uM after 72 hrs by MTT assay", "assay_type": "functional", "details": "Bcap37, 72 h, read-out: GI", "units": {"inhibition of growth at 10 µM": "%"}}
{"smiles": "O=C(/C=C/c1ccc(Oc2ncnc3ccc(Cl)cc23)cc1)/C=C/c1cc([N+](=O)[O-])ccc1Cl", "inhibition of growth at 10 µM": 72.5}
{"system": "MGC-803", "assay": "Induction of apoptosis in human MGC803 cells at 1 uM after 6 hrs by Annexin V-FITC staining based flow cytometry", "assay_type": "functional", "details": "not given", "units": {"Activity": "%"}}
{"smiles": "O=C(/C=C/c1ccc(Oc2ncnc3ccc(Cl)cc23)cc1)/C=C/c1cc([N+](=O)[O-])ccc1Cl", "Activity": 1.2}
{"system": "not listed separately", "assay": "Growth inhibition of human PC3 cells at 10 uM after 72 hrs by MTT assay", "assay_type": "functional", "details": "PC-3, 72 h, read-out: GI", "units": {"inhibition of growth at 10 µM": "%"}}
{"smiles": "O=C(/C=C/c1ccc(Oc2ncnc3ccc(Cl)cc23)cc1)/C=C/c1cc([N+](=O)[O-])ccc1Cl", "inhibition of growth at 10 µM": 76.8}
{"system": "MGC-803", "assay": "Induction of apoptosis in human MGC803 cells at 5 uM after 6 hrs by Annexin V-FITC staining based flow cytometry", "assay_type": "functional", "details": "not given", "units": {"Activity": "%"}}
{"smiles": "O=C(/C=C/c1ccc(Oc2ncnc3ccc(Cl)cc23)cc1)/C=C/c1cc([N+](=O)[O-])ccc1Cl", "Activity": 1.7}
{"system": "MGC-803", "assay": "Growth inhibition of human MGC803 cells after 72 hrs by MTT assay", "assay_type": "functional, cell-based", "details": "MGC-803, 72 h"}
{"smiles": "O=C(/C=C/c1ccc(Oc2ncnc3ccc(Cl)cc23)cc1)/C=C/c1cc([N+](=O)[O-])ccc1Cl", "pIC50": 5.67}
{"system": "MGC-803", "assay": "Induction of apoptosis in human MGC803 cells assessed as condensed chromatin at 1 to 10 uM after 12 hrs by Hoechst 33258 staining based fluorescence microscopy", "assay_type": "functional, cell-based", "details": "not given"}
{"smiles": "O=C(/C=C/c1ccc(Oc2ncnc3ccc(Cl)cc23)cc1)/C=C/c1cc([N+](=O)[O-])ccc1Cl", "Activity": "Active"}
{"system": "MGC-803", "assay": "Induction of apoptosis in human MGC803 cells assessed as cell volume reduction at 1 to 10 uM after 12 hrs by AO/EB staining based fluorescence microscopy", "assay_type": "functional", "details": "not given"}
{"smiles": "O=C(/C=C/c1ccc(Oc2ncnc3ccc(Cl)cc23)cc1)/C=C/c1cc([N+](=O)[O-])ccc1Cl", "Activity": "Active"}
